{
  "source": "patent US20150285817A1",
  "about": "(priority 2014, published 2015)",
  "test_system": "NSCLC patients",
  "conditions": "VeriStrat poor patients, SCR samples",
  "note": "Where two headings read alike, the source gives them in different places.",
  "excerpt": "Briefly, by way of overview, 188 patients were enrolled in the study. Key entry criteria for the study were Stage III/IV NSCLC, treatment-naïve, adenocarcinoma histology, with the patients selected from an Asian population and being either non-smokers or light former smokers. Stratification of the population was based on Eastern Cooperative Oncology Group Performance Status (ECOG PS), smoking history, and gender.\nIn summary, we obtained pre-treatment serum samples from all 188 patients enrolled in the study described above. The samples were blinded and subject to MALDI-TOF mass-spectrometry. The resulting mass spectra were subject to predefined pre-processing steps, described below, and integrated intensity values at pre-defined m/z positions ranges, (i.e., feature values) in the pre-processed spectra were obtained. […]\nThe pre-treatment serum samples used in the foregoing analysis were largely derived from patient blood samples originally drawn immediately prior to drug dosing (hereafter called “C1D1” samples) in order to define baselines for drug pharmacokinetics and pharmacodynamics. Subsequently, a set of blood samples was analyzed, these being derived from blood draws taken from 1-12 days (median 4.4 days) prior to drug dosing (hereafter called “SCR” samples) for purposes of establishing patient eligibility for study with respect to blood chemistries.",
  "data": [
    {"smiles": "COc1cc2ncnc(Nc3ccc(F)c(Cl)c3)c2cc1OCCCN1CCOCC1", "note": "[gefitinib]", "values": [
      {"measurement": "median PFS", "setting": "EGFR SM+ population", "value": 4.1, "unit": "months"},
      {"measurement": "median PFS", "setting": "ITT population", "value": 2.7, "unit": "months"}
    ]}
  ]
}
